Measured values: US8574831B2, “Mutational profiles in HIV-1 reverse transcriptase correlated with phenotypic drug resistance” (Virco N.V., priority 2000, dated 2013)

System: HIV with mutations in the HIV protease sequence
Assay: Phenotypic fold resistance to protease inhibitors, protease mutations 84A/84L/84C/54M/54L/54V in a background (Examples 8-13)
Format: cell-based, HIV-1
Method: As is the case with the genotyping assays, the recombinant virus assay starts with the amplification of viral target sequences by means of PCR. The amplicons are incorporated into a proviral laboratory clone with sequences homologous to those present in the amplicon deleted. This generates a stock of chimeric viruses. The viruses are tested for their ability to grow in the presence of different concentrations of drugs. Results are obtained by calculating IC50 values for each inhibitor and by reporting the results as IC50 values, expressed in μM concentrations, or by computing the ratio of the IC50 values found for the chimeric virus to the IC50 values found for a wild type susceptible laboratory virus tested in parallel. In the latter case, resistance is expressed as “fold-resistance” compared to a wild-type susceptible HIV-1 strain. In order to meet the need for high-volume testing and a short turn-around time for an individual test, the latest generation of phenotyping assays has undergone further modifications. The use of reporter gene systems for susceptibility testing allows the implementation of laboratory automation and standardization. See Pauwels, et al., J. Virol. Methods 20, 309-321 (1998); Paulous, S., et al., International Workshop on HIV Drug Resistance, Treatment Strategies and Eradication, St. Petersburg, Fla., USA. Abstr. 46 (1997); and Deeks, S. G., et al., 2nd International Workshop on HIV Drug Resistance and Treatment Strategies, Lake Maggiore, Italy. Abstr. 53 (1998).
The ANTIVIROGRAM® assay (Virco) (WO 97/27480) is based on homologous recombination of patient derived HIV-1 gag/PR/RT sequences into a proviral HIV-1 clone correspondingly deleted for the gag/PR/RT sequences. See Pauwels, et al., J. Virol. Methods 20, 309-321 (1998). A similar assay (Phenosense ViroLogic) is based on enzymatic ligation of patient-derived PR/RT sequences into a correspondingly deleted proviral vector carrying an indicator gene, luciferase, inserted in the deleted HIV-1 envelope gene. See Deeks, S. G., et al., 2nd International Workshop on HIV Drug Resistance and Treatment Strategies, Lake Maggiore, Italy. Abstr. 53 (1998). Hertogs et al. Antimicrob. Agents Chemother. 44(3) 568-573 (2000) the disclosures of which are herein incorporated by reference.
The methods of monitoring HIV-1 drug resistance, may also be used in combination with phenotypic drug resistance testing of viral isolates. For example, in one embodiment, a phenotypic test is utilized that is based upon the construction of chimeric HIV-1 strains composed of the protease (PR) and reverse transcriptase (RT) gene sequences which are isolated and amplified from the patient viral RNA. These strains may subsequently be recombined inside CD4+ T cells with a standard laboratory isogenic (HXB2) HIV-1 DNA construct from which the PR/RT gene sequences were deleted. The recombinant strains may then be grown in the presence of the above-mentioned antiviral drugs and the susceptibility of the viral isolates may be expressed as fold-change value of the IC50 of the drug on the patient isolates over the IC50 of the drug on a wild-type laboratory reference strain.

In the case of `Cc1c(O)cccc1C(=O)N[C@@H](CSc1ccccc1)[C@H](O)CN1C[C@H]2CCCC[C@H]2C[C@H]1C(=O)NC(C)(C)C` [Nelfinavir, nelfinavir], the “mean fold increase in resistance” value (Table 9 #1, protease genotype WT) is reported as 0.7 fold, the “mean fold increase in resistance” value (Table 9 #2, protease genotype 10I) is reported as 1 fold and the “mean fold increase in resistance” value (Table 9 #3, protease genotype 46I) is reported as 1.5 fold. For the same compound, the “mean fold increase in resistance” value (Table 9 #4, protease genotype 46I + 84V) was 5.6 fold, the “mean fold increase in resistance” value (Table 9 #5, protease genotype 46I + 84A) was 61.9 fold and the “mean fold increase in resistance” value (Table 9 #6, protease genotype 10I + 46I) was 0.8 fold. For the same compound, the “mean fold increase in resistance” value (Table 9 #7, protease genotype 10I + 46I + 84V) was 3.1 fold, the “mean fold increase in resistance” value (Table 9 #8, protease genotype 10I + 46I + 84A) was 43.9 fold and the “mean fold increase in resistance” value (Table 9 #9, protease genotype 10L/I + 46I + 84A) was 56.2 fold. The “mean fold increase in resistance” value (Table 9 #10, protease genotype 10I + 46I + 84A) was 36.9 fold, the “mean fold increase in resistance” value (Table 9 #11, protease genotype 46I + 71V) was 1 fold and the “mean fold increase in resistance” value (Table 9 #12, protease genotype 46I + 71V + 84V/I) was 0.7 fold. The “mean fold increase in resistance” value (Table 9 #13, protease genotype 46I + 71V + 84A) was 59.9 fold, the “mean fold increase in resistance” value (Table 9 #14, protease genotype 10F + 46I + 71V) was 45.2 fold and the “mean fold increase in resistance” value (Table 9 #15, protease genotype 10I + 46I + 71V + 84V) was 57.1 fold. The “mean fold increase in resistance” value (Table 9 #16, protease genotype 10I + 46I + 71V + 84A) was 54.9 fold, the “mean fold increase in resistance” value (Table 9 #17, protease genotype 10V + 46I + 71T + 84A) was 51.2 fold and the “mean fold increase in resistance” value (Table 9 #18, protease genotype 10I + 46I + 71V + 77I) was 6.1 fold. For the same compound, the “mean fold increase in resistance” value (Table 9 #19, protease genotype 10I + 46I + 71V + 77I + 84V) was 2.8 fold, the “mean fold increase in resistance” value (Table 9 #20, protease genotype 10I + 46I + 71V + 77I + 84A) was 68.6 fold and the “mean fold increase in resistance” value (Table 9 #21, protease genotype 10I + 33L/I + 46I + 71V + 77V/I + 84A) was 63.1 fold. For the same compound, the “mean fold increase in resistance” value (Table 10 #1, protease genotype 10I + 36I + 71V) was 1.5 fold, the “mean fold increase in resistance” value (Table 10 #2, protease genotype 10I + 36I + 71I + 84V) was 0.8 fold and the “mean fold increase in resistance” value (Table 10 #3, protease genotype 10I + 36I + 71I + 84L) was 39.4 fold. For the same compound, the “mean fold increase in resistance” value (Table 11 #1, protease genotype WT) was 0.7 fold, the “mean fold increase in resistance” value (Table 11 #2, protease genotype 84V) was 0.9 fold and the “mean fold increase in resistance” value (Table 11 #3, protease genotype 84C) was 51.2 fold. For the same compound, the “mean fold increase in resistance” value (Table 11 #4, protease genotype 10I) was 1.0 fold, the “mean fold increase in resistance” value (Table 11 #5, protease genotype 10I + 84V) was 2.0 fold and the “mean fold increase in resistance” value (Table 11 #6, protease genotype 10I + 84C) was 61.9 fold. The “mean fold increase in resistance” value (Table 11 #7, protease genotype 77I) was 0.9 fold, the “mean fold increase in resistance” value (Table 11 #8, protease genotype 77I + 84V) was 2.8 fold and the “mean fold increase in resistance” value (Table 11 #9, protease genotype 77I + 84C) was 61.9 fold. For the same compound, the “mean fold increase in resistance” value (Table 11 #10, protease genotype 77I + 84C) was 38.2 fold, the “mean fold increase in resistance” value (Table 11 #11, protease genotype 10I + 24I + 36I + 46I + 71V + 84C) was 51.7 fold and the “Fold change in IC50” value (Table 12, V19263, genotype 77I) was 0.9 fold. The “Fold change in IC50” value (Table 12, V20160, genotype WT) was 0.7 fold, the “Fold change in IC50” value (Table 12, V021667, genotype 10I) was 1.0 fold and the “Fold change in IC50” value (Table 12, V030496, genotype 10I + 77I) was 0.7 fold. The “Fold change in IC50” value (Table 12, V048869, genotype 10I + 54M + 77I + 90M) was 28.5 fold, the “Fold change in IC50” value (Table 12, V048872, genotype 33F + 54M + 77I + 90M) was 7.4 fold and the “Fold change in IC50” value (Table 12, V048873, genotype 33F + 54M + 77I + 90M) was 7.7 fold. For the same compound, the “Fold change in IC50” value (Table 12, V048877, genotype 10I + 33F + 77I + 90M) was 9.4 fold, the “Fold change in IC50” value (Table 12, V048878, genotype 10I + 33F + 54M + 71V + 77I + 90M) was 7.3 fold and the “Fold change in IC50” value (Table 12, V048879, genotype 10I + 33F + 54M + 71V + 77I + 90M) was 45.7 fold. The “Fold change in IC50” value (Table 12, V048880, genotype 10I + 33F + 77I + 90M) was 4.9 fold, the “Fold change in IC50” value (Table 12, V052940, genotype 71V) was 0.6 fold and the “Fold change in IC50” value (Table 12, V052942, genotype 10I + 71V) was 0.9 fold. The “Fold change in IC50” value (Table 12, V052943, genotype 10I + 90M) was 2.2 fold, the “Fold change in IC50” value (Table 12, V052944, genotype 10I + 90M) was 1.4 fold and the “Fold change in IC50” value (Table 12, V052945, genotype 77I + 90M) was 3.0 fold. The “Fold change in IC50” value (Table 12, V052946, genotype 71V + 90M) was 3.0 fold, the “Fold change in IC50” value (Table 12, V052947, genotype 10I + 77I + 90M) was 8.2 fold and the “Fold change in IC50” value (Table 12, V052948, genotype 10I + 71V + 90M) was 9.0 fold. The “Fold change in IC50” value (Table 12, V052949, genotype 10I + 71V + 77I + 90M) was 8.6 fold, the “Fold change in IC50” value (Table 12, V052950, genotype 33F) was 1.0 fold and the “Fold change in IC50” value (Table 12, V052951, genotype 33F + 77I) was 5.2 fold. For the same compound, the “Fold change in IC50” value (Table 12, V052953, genotype 10I + 33F + 77I) was 0.9 fold, the “Fold change in IC50” value (Table 12, V052954, genotype 33F + 77I + 90M) was 5.9 fold and the “Fold change in IC50” value (Table 12, V052955, genotype 33F + 71V + 90M) was 36.6 fold. For the same compound, the “Fold change in IC50” value (Table 12, V052977, genotype 10I + 33F + 54M) was 3.8 fold, the “Fold change in IC50” value (Table 12, V052978, genotype 10I + 33F + 54M + 71V + 90M) was 29.1 fold and the “Fold change in IC50” value (Table 12, V052979, genotype 10I + 54M) was 3.8 fold. For the same compound, the “Fold change in IC50” value (Table 12, V052980, genotype 10I + 54M + 90M) was 7.0 fold, the “Fold change in IC50” value (Table 12, V052981, genotype 10I + 54M + 71V + 90M) was 8.7 fold and the “Fold change in IC50” value (Table 12, V052982, genotype 10I + 54M + 71V + 77I + 90M) was 10.1 fold. For the same compound, the “Fold change in IC50” value (Table 12, V053832, genotype 10I + 33F) was 1.6 fold.
